Test results taken from US20230219942A1, “COMPOUNDS COMPRISING A THREE RING CORE AS PD-1/PD-L1 BLOCKERS” (RELIVE THERAPEUTICS INC., priority 2020, published 2023).
Like-named read-outs stand apart in the source and are kept apart here.

Assays:
[1] = target: T1, PD-1/PD-L1 interaction (Homo sapiens, UniProt Q9NZQ7); test: Cisbio PD-1/PD-L1 Homogeneous Time-Resolved Fluorescence (HTRF) binding assay; details: read-out: Reported IC50
T1 construct: Tag1 or Tag2 (undisclosed kit tag); purchased Cisbio
T1 sequence (Q9NZQ7 19-238 limits assumed): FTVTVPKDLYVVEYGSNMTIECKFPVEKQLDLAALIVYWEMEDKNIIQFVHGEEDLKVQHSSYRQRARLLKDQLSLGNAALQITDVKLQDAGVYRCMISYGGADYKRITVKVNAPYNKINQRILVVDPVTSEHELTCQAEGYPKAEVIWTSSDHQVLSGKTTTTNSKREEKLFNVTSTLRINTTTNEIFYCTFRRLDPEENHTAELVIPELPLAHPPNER
Excerpt: The ability of compounds of the disclosure to inhibit the PD-1/PD-L1 interaction was investigated using a Cisbio PD-1/PD-L1 Homogeneous Time-Resolved Fluorescence (HTRF) binding assay (https://ca.cisbio.net/human-pd1-pd-l1-biochemical-binding-assay-44666).
With the assay, the interaction between PD-L1 and PD-1 is detected by using anti-Tag1 labeled with Europium (HTRF donor) and anti-Tag2 labeled with XL665 (HTRF acceptor). When the donor and acceptor antibodies are brought into close proximity due to PD-L1 and PD-1 binding, excitation of the donor antibody triggers fluorescence resonance energy transfer (FRET) towards the acceptor antibody, which in turn emits specifically at 665 nm. This specific signal is directly proportional to the extent of PD-1/PD-L1 interaction. Thus, a compound blocking the PD-1/PD-L1 interaction causes a reduction in the HTRF signal.
The assay was carried out in accordance with the product insert.

[2] = system: PD-1; details: PD-1 inhibition assay, literature value; read-out: IC50 previously reported; cited from earlier work
[3] = target: PD-1/PD-L1 (Homo sapiens, UniProt Q9NZQ7); details: Table 11; known small molecule PD-1/PD-L1 blockers; cited from earlier work
Chain of PD-1/PD-L1 (Q9NZQ7 19-290): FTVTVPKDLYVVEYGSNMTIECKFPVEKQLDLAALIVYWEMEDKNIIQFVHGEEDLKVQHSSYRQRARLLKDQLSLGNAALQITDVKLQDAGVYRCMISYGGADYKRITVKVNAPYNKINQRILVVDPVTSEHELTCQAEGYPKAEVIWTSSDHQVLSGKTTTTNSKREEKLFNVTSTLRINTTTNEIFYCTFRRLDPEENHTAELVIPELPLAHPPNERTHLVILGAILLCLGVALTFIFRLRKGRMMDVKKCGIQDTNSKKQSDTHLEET

[4] = Table 10, * n = 7, median, P1 and P2 are different isomers
[5] = Table 10, same result in μM, P1 and P2 are different isomers

Compound `COc1cc(C(=O)N2CCN(Cc3nsc(NC[C@@H]4CCCN4Cc4ccc(C(F)(F)F)cc4)n3)CC2)cc(OC)c1OC` [Compound B317] has an IC50 [1, 4] of 0.018 µM and an IC50 [1, 5] of 0.018 µM.

With `COc1cc(C(=O)N2CCN(Cc3csc(NC[C@@H]4CCCN4Cc4ccc(Br)c(F)c4)n3)CC2)cc(OC)c1OC` [Compound B318] the IC50 ([1]; Table 9) was 0.092 µM and the IC50 ([1]; Table 9, same result in μM) was 0.092 µM.

`COc1cc(C(=O)N2CCN(Cc3nsc(NC[C@@H]4CCCN4Cc4ccc(Br)c(F)c4)n3)CC2)cc(OC)c1OC` [Compound B319] showed an IC50 [1, 4] of 0.015 µM and an IC50 [1, 5] of 0.015 µM.

`Cc1ccc(C(=O)N2CCN(Cc3csc(NC[C@@H]4CCCN4Cc4ccc(Br)cc4)n3)CC2)cc1` [Compound B408] showed an IC50 ([1]; Table 9) greater than 50 µM and an IC50 ([1]; Table 9, same result in μM) greater than 50 µM.

With `Cc1ccc(C(=O)N2CCN(Cc3nsc(NC[C@@H]4CCCN4Cc4ccc(Br)cc4)n3)CC2)cc1` [Compound B409] the IC50 [1, 4] was 0.65 µM and the IC50 [1, 5] was 0.65 µM.

For `O=C(c1ccc(Cl)cc1)N1CCN(Cc2csc(NCC3CCCN3Cc3ccc(Br)cc3)n2)CC1` (stereo not shown) [Compound B410], the IC50 ([1]; Table 9) was greater than 5 µM and the IC50 ([1]; Table 9, same result in μM) was greater than 5 µM.

Compound `O=C(c1ccc(Cl)cc1)N1CCN(Cc2nsc(NC[C@@H]3CCCN3Cc3ccc(Br)cc3)n2)CC1` [Compound B411] has an IC50 [1, 4] of 1.02 µM and an IC50 [1, 5] of 1 µM.

In the case of `O=C(c1ccccc1)N1CCN(Cc2nsc(NC[C@@H]3CCCN3Cc3ccc(Br)cc3)n2)CC1` [Compound B412], the IC50 [1, 4] is reported as 4.4 µM and the IC50 [1, 5] is reported as 4.4 µM.

Work on `O=C(c1ccc(=O)[nH]c1)N1CCN(Cc2nsc(NC[C@@H]3CCCN3Cc3ccc(Br)cc3)n2)CC1` [Compound B413] yielded an IC50 [1, 4] of 0.44 µM and an IC50 [1, 5] of 0.44 µM.

With `Cn1cc(C(=O)N2CCN(Cc3csc(NC[C@@H]4CCCN4Cc4ccc(Br)cc4)n3)CC2)ccc1=O` [Compound B414] the IC50 ([1]; Table 9) was greater than 5 µM and the IC50 ([1]; Table 9, same result in μM) was greater than 5 µM.

With `Cn1cc(C(=O)N2CCN(Cc3nsc(NC[C@@H]4CCCN4Cc4ccc(Br)cc4)n3)CC2)ccc1=O` [Compound B415] the IC50 [1, 4] was 0.216 µM and the IC50 [1, 5] was 0.22 µM.

For `COc1cc(C(=O)N2CCN(Cc3cc(NC[C@@H]4CCCN4Cc4ccc(Br)cc4)sn3)CC2)cc(OC)c1OC` [Compound B708], the IC50 [1, 4] was 0.028 µM and the IC50 [1, 5] was 0.028 µM.

Compound `COc1cc(C(=O)N2CCN(Cc3nccc(NC[C@@H]4CCCN4Cc4ccc(Br)cc4)n3)CC2)cc(OC)c1OC` [Compound B709] has an IC50 [1, 4] of 8 µM and an IC50 [1, 5] of 8 µM.

Compound `COc1cc(C(=O)N2CCN(Cc3nsc(NC[C@@H]4CCCCN4Cc4ccc(Br)cc4)n3)CC2)cc(OC)c1OC` [Compound B710] has an IC50 [1, 4] of 0.096 µM and an IC50 [1, 5] of 0.096 µM.

For `COc1cc(C(=O)N2CCN(Cc3nsc(NC[C@@H]4C[C@@H](O)CN4Cc4ccc(Br)cc4)n3)CC2)cc(OC)c1OC` [Compound B802], the IC50 [1, 4] was 0.012 µM and the IC50 [1, 5] was 0.012 µM.

With `COc1cc(C(=O)N2C[C@H](C)N(Cc3nsc(NC[C@@H]4CCCN4Cc4ccc(Br)cc4)n3)C[C@@H]2C)cc(OC)c1OC` [Compound B804] the IC50 [1, 4] was 0.021 µM and the IC50 [1, 5] was 0.021 µM.

In the case of `COc1cc(C(=O)N2CCN([C@H](C)c3nsc(NC[C@@H]4CCCN4Cc4ccc(Br)cc4)n3)CC2)cc(OC)c1OC` [Compound B805], the IC50 [1, 4] is reported as 0.014 µM and the IC50 [1, 5] is reported as 0.014 µM.

Work on `COc1cc(C(=O)N2CCN([C@@H](C)c3nsc(NC[C@@H]4CCCN4Cc4ccc(Br)cc4)n3)CC2)cc(OC)c1OC` [Compound B806] yielded an IC50 [1, 4] of 0.012 µM and an IC50 [1, 5] of 0.012 µM.

With `COc1cc(C(=O)N2CCN(Cc3nsc(NC[C@@H]4C[C@@H](O)CN4[C@@H](C)c4ccc(Br)cc4)n3)CC2)cc(OC)c1OC` [Compound B910] the IC50 [1, 4] was 0.044 µM and the IC50 [1, 5] was 0.044 µM.

`COc1cc(C(=O)N2C[C@H](C)N(Cc3nsc(NC[C@@H]4C[C@@H](O)CN4Cc4ccc(Br)cc4)n3)C[C@@H]2C)cc(OC)c1OC` [Compound B911] gave an IC50 [1, 4] of 0.033 µM and an IC50 [1, 5] of 0.033 µM.

For `COc1cc(OCc2cccc(-c3ccccc3)c2C)cc(OC)c1CN1CCCCC1C(=O)O` (stereo not shown) [Compound S7911], the IC50 [2] is listed as 6 nM.

In the case of `CS(=O)(=O)c1cncc(COc2cc(OCc3cccc(-c4cccc(-c5ccc6c(c5)C[C@@H](N)C6)c4Cl)c3Cl)c(Br)cc2CN2CCCC[C@H]2C(=O)O)c1` [GS-4224, Example A], the KD/IC50 [3] is given as 0.09 nM.

In the case of `Cc1c(Nc2nc(C(F)F)nc3cc(CN4CC[C@](C)(O)C4)cnc23)cccc1-c1cccc(-c2nc3cc(CN4CCC(C(=O)O)CC4)cc(C#N)c3o2)c1C` [INB086550], the KD/IC50 [3] is given as less than 10 nM.
